Experimental data taken from PMC9352670 (2022).

Legend:
Assay in all cases: microscale thermophoresis
[1] = tested on: Dm-LS-2 (DNA, aptamer, HFNAP: side-chain on 5' nucleobase of each coding trinucleotide, positions 19,22,25,...,61 (codon key Figure 1B)) GAAAGCAGGACTGGAGATCCGCGCCGCTTTTATCCCTGTCCCCGCTACCCGTATCCCTCCTTGCAGACCGAACTAGAGCTT; conditions: 5 mM KCl, 1 mM MgCl2, 1 mM CaCl2 added; HBS-P+ buffer, 25 °C
[2] = tested on: Dm-LS-3 (DNA, aptamer, HFNAP: side-chain on 5' nucleobase of each coding trinucleotide, positions 19,22,25,...,61 (codon key Figure 1B)) GAAAGCAGGACTGGAGATTCGCATCGCTACTCCTCCTTGCCGTCCCACCGCCCACTGCTACCTCAGACCGAACTAGAGCTT; conditions: 5 mM KCl, 1 mM MgCl2, 1 mM CaCl2 added; HBS-P+ buffer, 25 °C
[3] = tested on: Dm-HS-9 (DNA, aptamer, HFNAP: side-chain on 5' nucleobase of each coding trinucleotide, positions 19,22,25,...,61 (codon key Figure 1B)) GAAAGCAGGACTGGAGATCGATTATTGTGATTTTGATCTCCCCCATATCCCCTTCCCTACTCGCAGACCGAACTAGAGCTT; conditions: 5 mM KCl, 1 mM MgCl2, 1 mM CaCl2 added; HBS-P+ buffer, 25 °C
[4] = tested on: Dm-HS-1 CGA ∆ s.c. (DNA, aptamer, as Dm-HS-1 but no side-chain at 19: allylamine at 22,25,37; alcohol at 28,34,49; phenol at 31,46; cyclopentyl at 40; cyclopropyl at 43,58; imidazole at 52,55,61) GAAAGCAGGACTGGAGATCGATTCTGGTGCTGTTGATCTCCGCCATTGTGCTCCTACCCTTCACAGACCGAACTAGAGCTT; conditions: 5 mM KCl, 1 mM MgCl2, 1 mM CaCl2 added; HBS-P+ buffer, 25 °C
[5] = tested on: Dm-HS-2 ∆ s.c. (DNA, aptamer, none (no side-chains)) GAAAGCAGGACTGGAGATCTATGGTCGCATCGTTGACCCTTGTCCTGCCCCTGTCTCTCTCAACAGACCGAACTAGAGCTT; conditions: 5 mM KCl, 1 mM MgCl2, 1 mM CaCl2 added; HBS-P+ buffer, 25 °C
[6] = tested on: Dm-HS-1 TGG ∆ s.c. (DNA, aptamer, no side-chain at 25 (codon 3 TGG); others as HFNAP: fluorophenyl at 19; allylamine at 22, 37; alcohol at 28, 34, 49; phenol at 31, 46; cyclopentyl at 40; cyclopropyl at 43, 58; imidazole at 52, 55, 61) GAAAGCAGGACTGGAGATCGATTCTGGTGCTGTTGATCTCCGCCATTGTGCTCCTACCCTTCACAGACCGAACTAGAGCTT; conditions: 5 mM KCl, 1 mM MgCl2, 1 mM CaCl2 added to HBS-P+; HBS-P+ buffer, 25 °C
[7] = tested on: Dm-HS-5 ∆ s.c. (DNA, aptamer, none (no side-chains)) GAAAGCAGGACTGGAGATCGATTCTGGTGCTGTTGATCTCCGCCATTGTGCTCCTGCCCTTCACAGACCGAACTAGAGCTT; conditions: 5 mM KCl, 1 mM MgCl2, 1 mM CaCl2 added; HBS-P+ buffer, 25 °C
[8] = tested on: Dm-HS-6 ∆ s.c. (DNA, aptamer, none (no side-chains)) GAAAGCAGGACTGGAGATTGGTAGTAACTGCTGTCCTGCTAATCATGCCGTTCACGCTGACCTCAGACCGAACTAGAGCTT; conditions: 5 mM KCl, 1 mM MgCl2, 1 mM CaCl2 added; HBS-P+ buffer, 25 °C
[9] = tested on: Dm-HS-4 (DNA, aptamer, HFNAP: side-chain on 5' nucleobase of each coding trinucleotide, positions 19,22,25,...,61 (codon key Figure 1B)) GAAAGCAGGACTGGAGATCGATTCTGGTGCTGTTGATCTCCGCCATTGTGCTCCTACCCTTCGCAGACCGAACTAGAGCTT; conditions: 5 mM KCl, 1 mM MgCl2, 1 mM CaCl2 added; HBS-P+ buffer, 25 °C
[10] = tested on: Dm-HS-1 TTG ∆ s.c. (DNA, aptamer, no side-chain at 46 (codon 10 TTG); others as HFNAP: fluorophenyl at 19; allylamine at 22, 25, 37; alcohol at 28, 34, 49; phenol at 31; cyclopentyl at 40; cyclopropyl at 43, 58; imidazole at 52, 55, 61) GAAAGCAGGACTGGAGATCGATTCTGGTGCTGTTGATCTCCGCCATTGTGCTCCTACCCTTCACAGACCGAACTAGAGCTT; conditions: 5 mM KCl, 1 mM MgCl2, 1 mM CaCl2 added to HBS-P+; HBS-P+ buffer, 25 °C
[11] = tested on: Dm-HS-8 (DNA, aptamer, HFNAP: side-chain on 5' nucleobase of each coding trinucleotide, positions 19,22,25,...,61 (codon key Figure 1B)) GAAAGCAGGACTGGAGATCGATTGCAGTTACGTCTCCCCTGCCCACCTTATTGCCATTCATAACAGACCGAACTAGAGCTT; conditions: 5 mM KCl, 1 mM MgCl2, 1 mM CaCl2 added; HBS-P+ buffer, 25 °C
[12] = tested on: Dm-LS-1 (DNA, aptamer, HFNAP: side-chain on 5' nucleobase of each coding trinucleotide, positions 19,22,25,...,61 (codon key Figure 1B)) GAAAGCAGGACTGGAGATCCGCGCCGCTTTTATCCCTAGTCCCTTTTACCCTACTTCCCCTTACAGACCGAACTAGAGCTT; conditions: 5 mM KCl, 1 mM MgCl2, 1 mM CaCl2 added; HBS-P+ buffer, 25 °C
[13] = tested on: Dm-HS-7 ∆ s.c. (DNA, aptamer, none (no side-chains)) GAAAGCAGGACTGGAGATCGATTGCAGTTACGTTGCTAGTCCCCTTGATCACCTCCGTCACCTCAGACCGAACTAGAGCTT; conditions: 5 mM KCl, 1 mM MgCl2, 1 mM CaCl2 added; HBS-P+ buffer, 25 °C
[14] = tested on: Dm-HS-1 (DNA, aptamer, HFNAP nucleobase side-chains: fluorophenyl at 19; allylamine at 22,25,37; alcohol at 28,34,49; phenol at 31,46; cyclopentyl at 40; cyclopropyl at 43,58; imidazole at 52,55,61) GAAAGCAGGACTGGAGATCGATTCTGGTGCTGTTGATCTCCGCCATTGTGCTCCTACCCTTCACAGACCGAACTAGAGCTT; conditions: 5 mM KCl, 1 mM MgCl2, 1 mM CaCl2 added; HBS-P+ buffer, 25 °C
[15] = tested on: Dm-HS-1 ∆ s.c. (DNA, aptamer, none (no side-chains)) GAAAGCAGGACTGGAGATCGATTCTGGTGCTGTTGATCTCCGCCATTGTGCTCCTACCCTTCACAGACCGAACTAGAGCTT; conditions: 5 mM KCl, 1 mM MgCl2, 1 mM CaCl2 added; HBS-P+ buffer, 25 °C

## COc1cccc2c1C(=O)c1c(O)c3c(c(O)c1C2=O)C[C@@](O)(C(C)=O)C[C@@H]3O[C@H]1C[C@H](N)[C@H](O)[C@H](C)O1
[1]
  Kd: 970 ± 60 nM
[2]
  Kd: 2230 ± 100 nM
[3]
  Kd: 1.13 ± 0.45 nM
[4]
  Kd: 231.1 ± 23.6 nM
[5]
  Kd ∆ side-chains: 1700 ± 170 nM
[6]
  Kd: 16.0 ± 2.2 nM
[7]
  Kd ∆ side-chains: 4500 ± 210 nM
[8]
  Kd ∆ side-chains: 1510 ± 65 nM
[9]
  Kd: 2.05 ± 0.65 nM
[10]
  Kd: 32.6 ± 5.0 nM
[11]
  Kd: 32.26 ± 8.9 nM
[12]
  Kd: 1110 ± 60 nM
[13]
  Kd ∆ side-chains: 2490 ± 120 nM
[14]
  Kd: 12.85 ± 1.6 nM
[15]
  Kd ∆ side-chains: 2610 ± 190 nM
